Results: PMC10189451, “Palmitic acid‐ and cysteine‐functionalized nanoparticles overcome mucus and epithelial barrier for oral delivery of drug” (Bioengineering & Translational Medicine, 2023)

Columns and labels:
[1] = Pharmacokinetic study after oral administration; format: in vivo, SD rats
Procedure: Nine male SD rats were randomly divided into three groups (n = 3). […] Moreover, 500 μL of blood was taken before administration, and 300 μL of blood was taken from the heart at 0.25, 0.5, 1, 2, 4, 6, 9, 12, and 24 h after administration. The plasma samples were centrifuged at 3000 r/min for 10 min. Subsequently, 100 μL of plasma was mixed with 10 μL methanol containing internal standard (rheum emodin, 20 μg/mL). After vortexing for 3 min, 250 μL ethyl acetate was added, and the mixture was centrifuged at 3000 r/min for 10 min. The extraction residue was reconstituted in 100 μL of mobile phase and determined by HPLC. The mobile phase was a mixture of acetonitrile: water (containing 2% acetic acid) (52:48, v/v), the flow rate was 1 mL/min, and the detection wavelength was 426 nm. Pharmacokinetic parameters were calculated using PK SOLVER for the noncompartmental model.

[2] = Cytotoxicity assay (CCK‐8) on HepG‐2; format: cell-based; conditions: human, HepG-2 cells; read-out: Cell viability of HepG‐2
Procedure: HT29‐MTX and HepG‐2 were cultured in RPMI medium and MEM, respectively, supplemented with 10% fetal bovine serum, 1% (v/v) penicillin, and streptomycin. HT29‐MTX or HepG‐2 were seeded (100 μL) into a 96‐well plate at a cell density of 1 × 10^4 cells/well. […] After co‐incubation for 24 h, the cytotoxicity was analyzed by CCK‐8 assay (Cell Counting Kit‐8, Beyotime).

[3] = test system: DSS‐induced colitis; assay: Efficacy on DSS‐induced colitis mice; format: in vivo, BALB/c mice; conditions: daily oral 7 days, CUR 50 mg/kg
Procedure: Male BALB/c mice (6–8 weeks, 20–25 g) were randomly divided into five groups with eight mice in each group after 1 week of acclimation. Except for the normal control group, the remaining four groups were given 3% DSS instead of ordinary drinking water for 7 days, during which they were fed normally to establish the mice colitis model. […] The body weight of the mice was recorded every day, and DAI was measured to assess the severity of the colitis according to body weight loss, character of stool, and the degree of hematochezia (Table 3).
After treatment with different formulas, the mice were sacrificed after anesthesia, the colon length was measured, and the colon tissue was fixed with 10% formalin and stained with hematoxylin and eosin (H&E) for pathological examination. To count colonic goblet cells, fixed colonic tissues were also stained using Alcian blue. […]
In addition, a portion of collected colon tissue (50 mg) was homogenized with RIPA lysis buffer (Thermo Fisher, Shanghai, China) to extract total proteins. […] The protein content of supernatant was quantified using a bicinchoninic acid (BCA) protein assay kit (Thermo Fisher, Shanghai, China). The concentration of pro‐inflammatory cytokines such as TNF‐α and IL‐1β was measured by ELISA kit (Enzyme‐linked Biotechnology Co., Ltd., China).

[4] = In vivo absorption in ligated small intestinal loops (CLSM); conditions: SD rats, 2 h
Procedure: In vivo transportation of the FITC‐labeled PA‐N‐2‐HACC NPs and FITC‐labeled PA‐N‐2‐HACC‐Cys NPs through the epithelial mucosa was qualitatively analyzed using […] in vivo absorption study.[69] Male SD rats (6–8 weeks, 230–250 g) were anesthetized by chloral hydrate, and 2‐cm sections of small intestinal loops were ligated at both ends. Then, 100 μL of 1 mg/mL FITC‐labeled PA‐N‐2‐HACC NPs and PA‐N‐2‐HACC‐Cys NPs were administered into different intestinal loops of the same SD rats (n = 3). […] After 2 h, the rats were sacrificed, and the loops treated with the FITC‐labeled NPs were withdrawn and washed with PBS (pH = 7.4). After fixation in 4% paraformaldehyde for 4 h and dehydration in 30% sucrose overnight, the loops were embedded in optimal cutting temperature compound and sectioned into 10‐μm slices using a freezing microtome (Leica CM1860, Wetzlar, Germany). Cell nuclei were stained with Hoechst 33342 for 10 min and visualized using CLSM.
All the animal care and experimental protocols were in accordance with the “National Research Council's Guide for the Care and Use of Laboratory Animals”. Male SD rats (6-8 weeks, 230-250 g) were anesthetized by chloral hydrate, and 2 cm sections of small intestinal loops were ligated at both ends. […]

[5] = test system: HT29‐MTX; assay: Cellular uptake of the NPs loaded with CUR (CLSM, HPLC); format: cell-based; conditions: CUR 5–20 μg/mL, 2 and 4 h, CLSM fluorescence / HPLC
Procedure: HT29‐MTX was seeded in the 12‐well plate with 2 × 10^5 cells/well and incubated overnight. […] After co‐incubation for prescribed time intervals (2 and 4 h), the cells were cleaned with PBS and lysed by 1% Triton X‐100 at 4°C. […] The cellular uptake efficiency was calculated using Formula (11). In addition, after fixation with 4% paraformaldehyde, the HT29‐MTX stained with Hoechst 33342 were observed by CLSM. (11) Cellular uptake%=Cellular intake ofCUR/Total amount ofCURadded×100.
HT29-MTX was seeded in the 12-well plate with 2×10^5 cells/well and incubated overnight. […] After co-incubation for prescribed time intervals (2 and 4 h), the cells were cleaned with PBS and lysed by 1% Triton X-100 at 4 ℃. […] In addition, the HT29-MTX stained with Hoechst 33342 were observed by CLSM.

[6] = male, SD, rat, plasma, po, 50 mg/kg

CL ([1]; SD rats, oral, CUR dose 50 mg/kg, n = 3): 782.7 ± 18.7 mL/min/kg
Cmax [1, 6]: 41 ± 10 ng/mL
MRT [1, 6]: 4.71 ± 0.48 h
Tmax [1, 6]: 1 h
half-life [1, 6]: 3.27 ± 0.32 h
AUC ([1]; male, SD, rat, plasma, po, 50 mg/kg, read-out: AUC0‐∞): 252 ± 110 ng·h/mL
Fluorescence signal in intestinal tissue (in vivo absorption, in words) [4]: weak green fluorescence signal
Compound: COc1cc(/C=C/C(=O)CC(=O)/C=C/c2ccc(O)c(OC)c2)ccc1O [CUR, Curcumin]
viability at 24 h, 12.5 μg/mL [2]: 77.5%
Clinical symptoms (body weight loss, colon length shortening, DAI increase) [3]: significantly improved
Colonic epithelial mucosa / goblet cells (Alcian blue staining) [3]: relieved the damage caused by DSS
Cellular uptake of CUR in HT29‐MTX (in words) [5]: weak fluorescence intensity
